From ChEMBL document CHEMBL3352560, “Optimization of drug-like properties of nonsteroidal glucocorticoid mimetics and identification of a clinical candidate” (ACS Med Chem Lett, 2014)
≈ marks a conversion by molar mass, not a printed value.

Legend:
[1] = physchem; conditions: buffer, pH 6.8
[2] = buffer, pH 6.8, 24 h
[3] = in vivo; conditions: rat

| Structure (SMILES) | solubility thermodynamic at 24 h [1] [µg/mL] | Therm_solubility [2] [µg/mL] | half-life [3] [h] |
| --- | --- | --- | --- |
| CC(C)(CC(O)(Cc1cc2cc(N3CCOCC3)ncc2[nH]1)C(F)(F)F)c1cccc(S(C)(=O)=O)c1 (stereo not drawn) | 47 (≈ 89.4 µM) | – | – |
| CCS(=O)(=O)c1cc2cc(C[C@](O)(CC(C)(C)c3ccc(F)cc3C(N)=O)C(F)(F)F)[nH]c2cn1 [BI 653048] | – | 5 | 4.2 |
